Our source for the TGI and GI50 values is PubChem BioAssay (NCI).

Common to all, as to assay: NCI-60 cell line screen, 48 h
The test system of test [1] is LXFL 529 NSCLC.
Test [2] relates to M19-MEL melanoma.
In test [3] the test system is RXF-631 renal.
Test [4] relates to DLD-1 colon.
Test [5] deals with SNB-78 CNS.
The subject of test [6] is HOP-18 NSCLC.
For test [7], the system named is DMS 114 small cell lung.

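Where inhibition never reached the appropriate level, the endpoint shown equals the highest concentration tested. Otherwise, values were interpolated linearly from a five-concentration, 48-hour dose response in 96-well plates. Abbreviation: GI50, concentration required for 50% inhibition of growth. TGI: total growth inhibition.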

As to `CC(=O)NNc1nc(C)c(C(=O)NNC(=O)C(=O)Nc2ccccc2C#N)s1`, the TGI in test [1], in test [2], in test [3], in test [4], in test [5] and in test [6] was over 100 µM each time. This compound showed a TGI in test [7] of over 100 µM.

As for `Cc1cccc(NC(=O)CC(=O)N2N=C(N(CCC#N)c3ccc(Cl)cc3)CC2c2ccccc2)c1` (stereo not drawn), the TGI in test [1], in test [2], in test [3], in test [4], in test [5] and in test [6] was over 100 µM in each case. Besides, the TGI in test [7] is over 100 µM.

Turning to `Cc1ccc(-c2c(N)[n+]([O-])c3ccccc3[n+]2[O-])cc1`, the TGI in test [1] is 18.3 µM; in test [2] it was 24.8 µM; in test [3] it was 3.19 µM; in test [4] it was 28.7 µM; in test [5], 37.1 µM; in test [6] it was 29.1 µM.

Turning to `CC1=NCCc2c1[nH]c1cc(O)ccc21`, the TGI in test [1], in test [2], in test [3], in test [4], in test [5] and in test [6] was over 100 µM throughout. In addition, in test [7], the TGI was over 100 µM.

For `COc1ccccc1NC(=O)C1=C(C)NC(C)=C(C(=O)Nc2ccccc2OC)C1c1ccccc1F`, the TGI in test [1], in test [3], in test [4], in test [5], in test [6] and in test [7] was over 100 µM each time.

Regarding `CCCc1[nH]nc(CCC(=O)N(Cc2ccccc2)Cc2ccccc2)c1CC`, the TGI in test [1], in test [2], in test [3], in test [4], in test [6] and in test [7] was over 100 µM each time.

As for `Cc1ccncc1.[O]=[Ge].[O]=[Ge].[O]=[Ge].[O]=[Ge].[O]=[Ge].[O]=[Ge][OH].[O]=[Ge][OH]`, the GI50 in test [1], in test [2], in test [3], in test [4], in test [5] and in test [6] was over 100 µM throughout. Besides, the GI50 in test [7] was over 100 µM. Also, the TGI in test [1], in test [2], in test [3], in test [4], in test [5] and in test [6] was over 100 µM each time. The same compound displayed a TGI in test [7] of over 100 µM.

Consider `CC1CCCCc2nc3c(c(=O)n21)CCCC3` (stereo not drawn), for which the TGI in test [1], in test [2], in test [3], in test [4] and in test [5] was over 100 µM throughout.

For the compound `CCCCCCCCCCCCOC(=S)NCCCC`, the TGI in test [1] is over 100 µM; in test [2], over 100 µM; in test [3], 55.6 µM; in test [4] it was over 100 µM; in test [5] it was 88.4 µM; in test [6] it was 89.1 µM. In test [7], this compound had a TGI of 37.7 µM.

For `CC(C)C(=O)Nc1nc2nc[nH]c2c(=O)[nH]1`, the TGI in test [1], in test [2], in test [3], in test [4], in test [5] and in test [6] was over 100 µM throughout. For the same compound, the TGI in test [7] is over 100 µM.

As for `COC(=O)CCC1CCc2c(OC)ccc(O)c2C1=O` (stereo not drawn), the TGI in test [1], in test [2], in test [3], in test [4] and in test [5] was over 100 µM throughout.

Consider `COC(=O)CCC(NC(=S)N/N=C(\C)c1nccs1)C(=O)OC` (stereo not drawn), for which the TGI in test [1], in test [2], in test [3], in test [4], in test [5] and in test [6] was over 100 µM each time. In test [7], this compound yielded a TGI of 57.5 µM.

As to `COc1ccc2c(c1)C(O)(C(F)(F)F)c1cc(C(=O)C(F)(F)F)c3ccccc3c1N2` (stereo not drawn), the TGI in test [1] turned out to be 22 µM; in test [2] it was 28.2 µM; in test [3] it was 34.6 µM; in test [4] it was 22.4 µM; in test [6], 33.3 µM; in test [7], 22.1 µM.

`CCOC(=O)C1=C(C)N(Cc2ccccc2)C(C)=C(C(=O)OCC)C1c1ccccc1O`: the TGI in test [1] is 71 µM; in test [2] it was 75.7 µM; in test [3] it was over 100 µM; in test [4], over 100 µM; in test [6], over 100 µM; in test [7], 43.8 µM.

Consider `C=C1C(=O)O[C@H]2[C@H]1[C@H](OC(=O)/C(C)=C\C)CC(=C)[C@@H]1[C@H](O)[C@H]3O[C@@]3(C)[C@@]12O`, for which the TGI in test [1], in test [2], in test [3], in test [4], in test [5] and in test [6] was over 100 µM in each case. The compound further had a TGI in test [7] of over 100 µM.
